Results published in ChEMBL document CHEMBL1201862, “PubChem BioAssay data set” (2004).
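Values below derive from 48-hour exposures of cells grown in 96-well plates, with endpoints linearly interpolated between the two concentrations bracketing the appropriate inhibition level. GI50 = concentration required for 50% inhibition of growth.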 Active and inactive are the calls of the source. Cut-off read from the data, not from the text of the source: active = GI50 up to about 1.1 µM and inactive = higher.

Experiments:
Assay in all cases: growth of human tumour cells (NCI), 48 h
[1] = system: MOLT-4
[2] = system: NCI-H522
[3] = system: CAKI-1
[4] = system: UO-31
[5] = system: SF-295
[6] = system: LOX IMVI
[7] = system: ACHN
[8] = system: SW-620
[9] = system: NCI-H226
[10] = system: EKVX
[11] = system: MDA-MB-435
[12] = system: SF-268
[13] = system: SF-539
[14] = system: UACC-257
[15] = system: OVCAR-5
[16] = system: A549
[17] = system: UACC-62
[18] = system: Malme-3M
[19] = system: BT-549

Measured: GI50

COc1ccc(C=C2C(C)=NN(c3cccc(Cl)c3)C23C(Cl)C(=O)N3c2nc3ccccc3s2)cc1 (configuration not stated)
inactive: [1] 15.9 µM | [2] 8.53 µM | [3] 23.2 µM | [4] 16.3 µM | [5] 22.1 µM | [6] 17.7 µM | [7] 21.5 µM | [8] 5.6 µM | [9] 21.4 µM | [10] 27.3 µM | [11] 16.5 µM | [12] 4.89 µM | [13] 30.5 µM | [14] 24.9 µM | [15] 17.3 µM

COC(=O)C(C)(/N=C/c1ccccc1)c1ccccc1 (configuration not stated)
inactive: [1] > 100 µM | [2] > 100 µM | [16] > 100 µM | [3] > 100 µM | [4] > 100 µM | [17] > 100 µM | [5] > 100 µM | [6] > 100 µM | [7] > 100 µM | [8] > 100 µM | [18] > 100 µM | [9] > 100 µM | [10] > 100 µM | [11] > 100 µM | [12] > 100 µM | [13] > 100 µM | [14] > 100 µM | [15] > 100 µM

Nc1ccccc1CC(O)C(=O)O (configuration not stated)
inactive: [1] > 100 µM | [16] > 100 µM | [3] > 100 µM | [17] > 100 µM | [5] > 100 µM | [6] > 100 µM | [7] > 100 µM | [8] > 100 µM | [18] > 100 µM | [9] > 100 µM | [10] > 100 µM | [11] > 100 µM | [12] > 100 µM | [13] > 100 µM | [14] > 100 µM | [15] > 100 µM

COC(=O)c1c2c(cc3c1CC1(Cc4cc5c(cc4C1)CCCC5)C3)CCCC2
inactive: [1] > 100 µM | [2] > 100 µM | [16] 46.3 µM | [4] > 100 µM | [17] > 100 µM | [5] > 100 µM | [6] > 100 µM | [7] > 100 µM | [18] > 100 µM | [10] > 100 µM | [11] > 100 µM | [13] > 100 µM | [14] > 100 µM | [15] > 100 µM

O=C(O)c1ccc(NC(NC(=O)C(C(F)(F)F)C(F)(F)F)(C(F)(F)F)C(F)(F)F)cc1
inactive: [19] > 100 µM | [1] > 100 µM | [16] > 100 µM | [3] > 100 µM | [4] > 100 µM | [6] > 100 µM | [7] > 100 µM | [8] > 100 µM | [10] > 100 µM | [11] > 100 µM | [12] > 100 µM | [13] > 100 µM | [14] > 100 µM | [15] > 100 µM
